Measured values: patent US10245257B2, “Anti-infective methods, compositions, and devices” (Dow Pharmaceutical Sciences, Inc., priority 2013, dated 2019)
Where two headings read alike, the source gives them in different places.

Experiments:
[1] = test system: T. mentagrophytes, T. rubrum and C. albicans; test: Drug resistance development in vitro by serial passage of fungal cultures; type: cell-based; conditions: serial passage in the presence of sub-growth inhibitory concentrations
Source text: Efinaconazole drug resistance development was studied in vitro against T. mentagrophytes, T. rubrum and C. albicans. […] The clinical significance of these in vitro results is unknown.

bacterial = test: Bacterial reverse mutation assay; type: cell-based
[2] = mouse, in vivo
CHL cell = type: cell-based
[3] = design: species or system rats; conditions: rat, in vivo, sc
[4] = Pharmacokinetic study in healthy volunteers, topical application to all 10 toenails; type: in vivo, human; conditions: for Cmax: mean +/- SD; for AUC(0-t): read-out: AUC24h
Method: In […] patients, efinaconazole 10% solution (IDP-108) was applied topically to all 10 toenails (0.42 mL total daily dose volume) administered as single and then 7 daily doses to 10 healthy volunteers, and once daily for 28 days to 18 severe onychomycosis patients. The efinaconazole 10% solution (0.42 mL/subject) was applied topically in the morning, unoccluded (i.e., without occluding, blocking or covering the nail with, for example, adhesive tape, bandage, dressing, sealant, etc.), by a trained nurse or study technician to all 10 toenails as a single dose (day 1), and seven consecutive daily doses (day 4 through day 10). A volume of 90 μL was applied on each great toenail and 30 μL on each of the remaining 8 toenails. There were no study drug applications on days 2 and 3.
Blood samples were collected at pre-dose, and 1, 2, 4, 6, 8, 10, 12, 16, 24, 28, 32, 36, 48, and 72 hours after dosing on days 1 and 10; and at pre-dose on days 6 and 8. Blood was processed to plasma and stored frozen until analysis.
(§1) Plasma concentrations of efinaconazole and its major metabolite H3 were determined by LC-MS-MS at multiple timepoints. Plasma concentrations of efinaconazole and H3 were determined using a validated LC-MS-MS method. […] The concentration of efinaconazole in plasma was determined at multiple time points over the course of 24-hour periods on days 1, 14, and 28. Plasma concentrations below the lower limit were set to zero for PK analyses. Pharmacokinetic parameters were calculated from individual plasma concentrations, whenever possible, using noncompartmental analysis in WinNonlin (Pharsight, Sunnyvale, Calif., USA), and included Cmax (observed peak drug concentration), Tmax (time at which Cmax occurs), Cmin (observed minimum drug concentration), t1/2 (apparent half-life), and AUC (area under the concentration-time curve).

[5] = Pharmacokinetic study in severe onychomycosis patients, once daily for 28 days; type: in vivo, human; conditions: for AUC(0-t): read-out: AUC24h; for Cmax: mean +/- SD
Method: Systemic absorption of efinaconazole in 18 […] patients with severe onychomycosis was determined after application of IDP-108 (10% efinaconazole) once daily for 28 days to patients' 10 toenails and adjacent skin. Specifically, two single-center, open-label studies in healthy volunteers and severe onychomycosis patients.
A separate single-center, open-label study to evaluate safety and PK of efinaconazole and its H3 metabolite in 20 patients with severe toenail onychomycosis also was conducted. The study enrolled men and women 18-70 years of age who had clinical diagnoses of stable or exacerbating severe DLSO affecting ≥80% of the area of both great toenails. The great toenails had evidence of toenail growth, and at least four toenails other than the great toenails were also affected by onychomycosis. A positive microscopic examination with potassium hydroxide (KOH) for the hyphae associated with dermatophytes was obtained for at least one great toenail at the screening visit.
Efinaconazole 10% solution (0.42 mL/subject) was applied topically, unoccluded, once daily in the morning for 28 days to all 10 toenails by a trained nurse or study technician, including to the toenail folds, toenail bed, hyponychium, and approximately 0.5 cm of skin around the toenail in all directions to ensure they were completely covered.
Blood samples were collected at predose and at 1, 2, 4, 6, 8, 10, 12, 16, and 24 hours postdose on days 1, 14, and 28. Blood was processed to plasma and stored frozen until analysis.
as §1

CYP2C9 = CYP2C9 (Homo sapiens, UniProt P11712); test: biochemical; type: in vitro ADME
Chain of CYP2C9 (P11712 whole entry): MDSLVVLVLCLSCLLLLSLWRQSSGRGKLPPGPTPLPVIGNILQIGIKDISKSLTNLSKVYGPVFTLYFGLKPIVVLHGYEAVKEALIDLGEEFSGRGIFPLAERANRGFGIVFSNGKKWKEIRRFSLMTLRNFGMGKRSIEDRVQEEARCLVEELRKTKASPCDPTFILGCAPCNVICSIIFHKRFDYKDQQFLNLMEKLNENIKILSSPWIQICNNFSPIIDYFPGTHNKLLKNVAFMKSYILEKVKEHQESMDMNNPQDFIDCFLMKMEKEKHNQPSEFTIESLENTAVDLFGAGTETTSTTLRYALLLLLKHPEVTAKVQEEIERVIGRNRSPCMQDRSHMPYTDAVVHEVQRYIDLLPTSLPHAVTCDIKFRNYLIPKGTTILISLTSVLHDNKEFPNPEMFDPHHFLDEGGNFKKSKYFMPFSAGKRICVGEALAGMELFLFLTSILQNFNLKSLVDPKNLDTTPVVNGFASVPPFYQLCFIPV
Source text: The 2006 Food and Drug Administration Drug Interaction Studies—Study Design, Data Analysis, and Implications for Dosing and Labeling draft guidance recommends clinical evaluation for drugs that are CYP inhibitors if the mean steady state Cmax/Ki is greater than 0.1.

Compound: C=C1CCN([C@H](C)[C@](O)(Cn2cncn2)c2ccc(F)cc2F)CC1 [efinaconazole, (2R,3R)-2-(2,4-difluorophenyl)-3-(4-methylenepiperidin-1-yl)-1-(1H-1,2,4-triazol-1-yl) butan-2-ol]
- increase of the MIC [1]: up to 4 fold
- mutagenicity (bacterial): not mutagenic
- clastogenicity [2]: not clastogenic
- clastogenicity (CHL cell): not clastogenic
- effect on estrous cycle in females ([3]; 5 mg/kg/day): did not have effects
- effect on estrous cycle in females ([3]; 25 mg/kg/day): delayed the estrous cycle
- steady-state reached on Day ([4]; fifth topical application, both toenails and back skin): 8 days
- Systemic exposure (AUC24h) on day 10 relative to day 1 ([4]; healthy volunteers): approximately 3.6 fold
- Cmax ([4]; healthy volunteers, Day 1 (single dose), plasma): 0.38 ± 0.39 ng/mL
- Cmax ([4]; healthy volunteers, Day 10 (7th daily dose), plasma): 0.54 ± 0.22 ng/mL
- Cmin ([4]; healthy volunteers, Day 10, mean +/- SD): 0.47 ± 0.18 ng/mL
- average plasma concentration ([4]; healthy volunteers, stated after the day 10 range): 0.37 ng/mL
- Cmax ([4]; human, plasma, topical, 0.42 mL/subject, healthy volunteers, Day 1 (single dose), plasma, read-out: Cmax): 0.382 ng/mL
- AUC(0-t) ([4]; human, plasma, topical, 0.42 mL/subject, healthy volunteers, Day 1, mean +/- SD): 2.64 ± 2.85 ng·h/mL
- Tmax ([4]; human, plasma, topical, 0.42 mL/subject, healthy volunteers, Day 1, value [range]): 24 h
- Cmax ([4]; human, plasma, topical, 0.42 mL/subject, healthy volunteers, Day 10 (7th daily dose), plasma, read-out: Cmax): 0.542 ng/mL
- AUC(0-t) ([4]; human, plasma, topical, 0.42 mL/subject, healthy volunteers, Day 10, mean +/- SD): 9.48 ± 3.86 ng·h/mL
- Tmax ([4]; human, plasma, topical, 0.42 mL/subject, healthy volunteers, Day 10, value [range]): 10 h
- concentration at 1 day ([4]; human, plasma, topical, 0.42 mL/subject, healthy volunteers, day 1, read-out: plasma concentration range): 0 to 1.11 ng/mL
- concentration at 10 day ([4]; human, plasma, topical, 0.42 mL/subject, healthy volunteers, day 10, read-out: plasma concentration range): 0.25 to 0.85 ng/mL
- tolerability, drug-related adverse events ([5]; both PK studies (healthy volunteers and onychomycosis patients)): well tolerated
- Tmax ([5]; both sexes, human, plasma, topical, 0.42 mL/subject, onychomycosis patients, Day 1): 23.9 h
- AUC(0-t) ([5]; both sexes, human, plasma, topical, 0.42 mL/subject, onychomycosis patients, Day 1, mean +/- SD): 1.79 ng·h/mL
- Cmax ([5]; both sexes, human, plasma, topical, 0.42 mL/subject, onychomycosis patients, Day 1, plasma): 0.23 ± 0.18 ng/mL
- Tmax ([5]; both sexes, human, plasma, topical, 0.42 mL/subject, onychomycosis patients, Day 14): 4.55 h
- AUC(0-t) ([5]; both sexes, human, plasma, topical, 0.42 mL/subject, onychomycosis patients, Day 14, mean +/- SD): 10.9 ± 5.9 ng·h/mL
- Cmax ([5]; both sexes, human, plasma, topical, 0.42 mL/subject, onychomycosis patients, Day 14, plasma): 0.62 ± 0.23 ng/mL
- Tmax ([5]; both sexes, human, plasma, topical, 0.42 mL/subject, onychomycosis patients, Day 28): 16 h
- AUC(0-t) ([5]; both sexes, human, plasma, topical, 0.42 mL/subject, onychomycosis patients, Day 28, mean +/- SD): 12.2 ng·h/mL
- Cmax ([5]; both sexes, human, plasma, topical, 0.42 mL/subject, onychomycosis patients, Day 28, plasma): 0.67 ng/mL
- concentration at 2 weeks after the last dose ([5]; both sexes, human, plasma, topical, 0.42 mL/subject, onychomycosis patients, detected in several subjects, read-out: mean plasma concentrations two weeks after the last dose): 0.07 ng/mL
- Cmin ([5]; onychomycosis patients, Day 14, mean +/- SD): 0.33 ± 0.17 ng/mL
- Cmin ([5]; onychomycosis patients, Day 28, mean +/- SD): 0.36 ± 0.20 ng/mL
- Ki (CYP2C9): 261 nM
- steady state Cmax/Ki (CYP2C9): 0.007
